Results on four compounds are retold here after ChEMBL document CHEMBL1201862, “PubChem BioAssay data set” (2004).

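Where inhibition never reached the appropriate level, the endpoint shown equals the highest concentration tested. Otherwise, values were interpolated linearly from a five-concentration, 48-hour dose response in 96-well plates. GI50: concentration for 50% inhibition of growth.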 Calls of active or inactive are those of the source. Cut-off read from the data, not from the text of the source: active = GI50 up to about 1.1 µM and inactive = higher.

Some test systems named below: K562; HCT-15; Malme-3M; NCI/ADR-RES; U-251; TK-10; CCRF-CEM; T47D; HL-60; RPMI-8226; MDA-N; CAKI-1; LOX IMVI; UACC-257; HOP-62; COLO 205; SK-MEL-28; DU-145; SK-MEL-2.
Common to all, as to test: DTP human tumour cell line panel, 48 h

As to `Cc1csc(NCc2ccc(Cl)cc2)n1`, the GI50 with K562 was 45.7 µM (inactive); in the test with HCT-15, 39.1 µM; with Malme-3M it was 45.1 µM (inactive); with NCI/ADR-RES it was 46.6 µM (inactive); in the test on U-251, 41.3 µM (inactive); in the test with TK-10, > 100 µM (inactive). In addition, the GI50 in the test with CCRF-CEM was 39.1 µM (inactive); with T47D it was 28.9 µM (inactive); in the test with HL-60 it was 33.1 µM (inactive); with RPMI-8226 it was 44 µM (inactive); in the test with MDA-N, 57.7 µM (inactive); in the test on CAKI-1 it was 60.5 µM (inactive). Moreover, the GI50 in the test with LOX IMVI is 99.3 µM (inactive); in the test on UACC-257, 67.8 µM (inactive); in the test with HOP-62, > 100 µM (inactive); with COLO 205, 24.1 µM (inactive); in the test with SK-MEL-28, 85.1 µM (inactive); in the test with DU-145, > 100 µM (inactive). Also, the GI50 in the test with SK-MEL-2 is 50.9 µM (inactive).

Consider `Sc1nnc(SCc2ccccc2Cl)c2nc[nH]c12`, for which the GI50 was > 100 µM (inactive) in the test with K562; greater than 100 µM with HCT-15; > 100 µM (inactive) with Malme-3M; > 100 µM (inactive) with NCI/ADR-RES; > 100 µM (inactive) with U-251; > 100 µM (inactive) with TK-10. In addition, the GI50 in the test with CCRF-CEM, with T47D, in the test on HL-60, with RPMI-8226, in the test on MDA-N and with CAKI-1 was > 100 µM (inactive) in each case. For the same compound, the GI50 in the test on LOX IMVI, in the test with UACC-257, in the test with HOP-62, in the test on COLO 205, in the test on SK-MEL-28 and in the test on DU-145 was > 100 µM (inactive) in each case. In the test on SK-MEL-2, the GI50 was > 100 µM (inactive).

Take `CCC(Nc1ncnc2nc[nH]c12)C(=O)O` (stereo unspecified): the GI50 is > 100 µM (inactive) in the test on K562; greater than 100 µM in the test with HCT-15; > 100 µM (inactive) in the test on Malme-3M; > 100 µM (inactive) with NCI/ADR-RES; > 100 µM (inactive) in the test with U-251; > 100 µM (inactive) in the test on TK-10. The GI50 in the test with CCRF-CEM, in the test with T47D, with HL-60, in the test with RPMI-8226, in the test with MDA-N and in the test with CAKI-1 was > 100 µM (inactive) each time. For the same compound, the GI50 in the test on LOX IMVI, with UACC-257, with HOP-62, in the test on COLO 205, in the test with SK-MEL-28 and with DU-145 was > 100 µM (inactive) throughout. Further, the GI50 in the test with SK-MEL-2 was > 100 µM (inactive).

As for `COC12COC(=O)C1C(c1ccc3c(c1)OCO3)c1cc3c(cc1O2)OCO3` (stereo unspecified), the GI50 in the test on K562 is 4.21 µM (inactive); in the test with HCT-15, 7.08 µM; in the test on Malme-3M, 40.7 µM (inactive); in the test with NCI/ADR-RES it was 5.3 µM (inactive); in the test on U-251, 32 µM (inactive); with TK-10, 29.2 µM (inactive). The GI50 with CCRF-CEM was 8.57 µM (inactive); in the test on T47D, 24.2 µM (inactive); in the test with HL-60, 5.28 µM (inactive); in the test with RPMI-8226, 14.4 µM (inactive); in the test on MDA-N, 2.69 µM (inactive); in the test with CAKI-1 it was > 73.8 µM (inactive). Also, the GI50 with LOX IMVI is 12.8 µM (inactive); in the test with UACC-257, 27.9 µM (inactive); with HOP-62, 16 µM (inactive); with COLO 205, 9.42 µM (inactive); with SK-MEL-28, 32.8 µM (inactive); with DU-145, 25 µM (inactive). In the test with SK-MEL-2, the GI50 is 17.6 µM (inactive).
